Laboratory results reported in ChEMBL document CHEMBL1201862, “PubChem BioAssay data set” (2004).
Calls of active or inactive are those of the source.

Experiments:
[1] = NIH-3T3 fibroblast cytotoxicity, dose response, cytotoxicity control, cell-based, fluorescence, Alamar Blue, secondary assay (AID 2327); assay type: functional;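 also: NIH-3T3 mouse fibroblasts cultured with fluconazole at 8 µg/mL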
[2] = C. albicans growth with fluconazole, confirmation, fluorescence, retest (AID 2467); assay type: functional, cell-based
[3] = target: Serine/threonine-protein phosphatase (Candida dubliniensis (strain CD36 / CBS 7987 / NCPF 3949 / NRRLY-17841) (Yeast), UniProt B9W6M3); assay: calcineurin pathway inhibitors in yeast reporter, dose response, S. cerevisiae, CDRE-lacZ, luminescence, secondary (AID 2388); assay type: functional, cell-based;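 also: yeast reporter cells carrying a calcineurin-responsive lacZ construct stimulated with calcium chloride; luminescent beta-galactosidase reporter signal in whole cells rather than isolated phosphatase activity; potency for inhibition where a drop in reporter signal means calcineurin blockade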
Vero = assay: cells; assay type: functional; conditions: Chlorocebus sabaeus
[4] = target: ATP-dependent molecular chaperone HSP82 (Candida albicans (strain WO-1) (Yeast), UniProt C4YTQ8); assay: loss of DOC-induced GRE-beta-galactosidase reporter signal, dose response, Hsp90 inhibitor project, S. cerevisiae, luminescence (AID 2400); assay type: functional, cell-based;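 also: beta-galactosidase luminescence from glucocorticoid response element reporter as proxy for Hsp90 function; inhibitor potency where signal loss means Hsp90 inhibition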
Fatty acid synthase [5] = target: T1, Fatty acid synthase (Homo sapiens, UniProt P49327); assay: FAS thioesterase domain inhibitors, dose response, biochemical, endpoint fluorescence intensity, uHTS hits (AID 624327); assay type: functional;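 also: fluorescence from hydrolysis of an O-methyl fluorescein acyl ester substrate by the enzyme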
Fatty acid synthase [6] = target: T1, Fatty acid synthase; assay: FAS thioesterase domain inhibitors, dose response, biochemical, kinetic fluorescence intensity (AID 624326); assay type: functional;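 also: rate of fluorescence rise from hydrolysis of a fluorogenic O-methyl fluorescein ester substrate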
Melanocortin receptor 4 = Melanocortin receptor 4 (Homo sapiens, UniProt P32245); assay: MC4R antagonist potency on cAMP, dose response, cell-based, TR-FRET, biased antagonists (AID 602298); assay type: functional;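 also: antagonist potency against agonist-stimulated cAMP production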
[7] = nonselective inhibitors of cellular cAMP signaling, dose response, counter-screen for MC4R biased antagonist project, cell-based, TR-FRET cAMP detection (AID 602305); assay type: functional;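 also: U2OS cells stimulated with forskolin near its EC80 as the cAMP inducer; potency is for inhibition of forskolin-stimulated cAMP signaling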
[8] = target: Melanin-concentrating hormone receptor 1 (Homo sapiens, UniProt Q99705); assay: Late-stage fluorescence-based counterscreen for antagonists of the G-protein coupled receptor 7 (GPR7): cell-based dose response assay to identify antagonists of the melanin-concentrating hormone receptor 1 (MCHR1) Set 5.; assay type: functional
[9] = target: ALK tyrosine kinase receptor (Homo sapiens, UniProt Q9UM73); assay type: functional;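 also: ALK tested as one member of a kinase panel screen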
[10] = target: Cyclin-dependent kinase 19 (Homo sapiens, UniProt Q9BWU1); assay: Navigating the Kinome. Panel member name: CDC2L6; assay type: functional
[11] = target: Protein disulfide-isomerase (Homo sapiens, UniProt P07237); assay: PDI inhibitors, insulin aggregation turbidity, dose response, biochemical, absorbance, cherry-picked samples (AID 602350); assay type: functional
cells [12] = assay type: functional, cell-based
cells [13] = assay type: functional, cell-based; remark: listed apart in the source
[14] = cytotoxicity in HEK-293T cells, dose response, cytotoxicity control for TCR NF-kB inhibitor project, luminescence, T-cell screen hits (AID 489026); assay type: functional, cell-based;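 also: cells exposed to compound about 14 hours before the viability readout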
BJ = assay: cytotoxicity toward Ras-transformed BJeLR fibroblasts, dose response, cell-based, alamar blue fluorescence, cherrypicked samples (AID 2631); assay type: functional; conditions: Homo sapiens;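 also: confirmatory dose-response assay in RAS-dependent BJ fibroblasts engineered with TERT, LT and ST, with cytotoxicity read by fluorescence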
INS1 = assay: beta cell apoptosis inhibitors, cytokine rescue, dose response, luminescence, retest (AID 449756); assay type: functional, cell-based; conditions: Rattus norvegicus;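 also: cell death triggered by IL-1 beta plus TNF-alpha plus IFN-gamma mixture; protective hits raise ATP signal compared with cytokine alone wells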
Large T antigen = Large T antigen (Simian virus 40, UniProt P03070); assay type: functional, Betapolyomavirus macacae;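 also: Confirmatory-stage PubChem screen for compounds that inhibit SV40 T antigen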
[15] = target: T2, Mannose-6-phosphate isomerase (Homo sapiens, UniProt P34949); assay: inhibitors of human PMI, primary screen, biochemical, fluorescence intensity, coupled assay (AID 1209)
T2 sequence (P34949 whole entry): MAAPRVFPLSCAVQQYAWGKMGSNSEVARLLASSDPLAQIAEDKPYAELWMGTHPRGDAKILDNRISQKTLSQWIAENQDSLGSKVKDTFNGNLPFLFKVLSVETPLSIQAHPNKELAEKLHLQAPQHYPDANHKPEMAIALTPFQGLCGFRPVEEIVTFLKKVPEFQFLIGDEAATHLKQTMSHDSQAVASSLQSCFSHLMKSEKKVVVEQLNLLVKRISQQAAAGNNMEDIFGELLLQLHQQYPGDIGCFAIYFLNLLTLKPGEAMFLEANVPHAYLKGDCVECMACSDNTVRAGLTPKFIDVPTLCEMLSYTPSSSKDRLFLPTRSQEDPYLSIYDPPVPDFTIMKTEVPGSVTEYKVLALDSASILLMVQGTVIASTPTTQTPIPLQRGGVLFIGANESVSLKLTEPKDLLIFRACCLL

[16] = target: Dual specificity tyrosine-phosphorylation-regulated kinase 1A (Rattus norvegicus, UniProt Q63470); assay type: biochemical, Homo sapiens

T1 sequence (P49327 whole entry, the tested form may be a part): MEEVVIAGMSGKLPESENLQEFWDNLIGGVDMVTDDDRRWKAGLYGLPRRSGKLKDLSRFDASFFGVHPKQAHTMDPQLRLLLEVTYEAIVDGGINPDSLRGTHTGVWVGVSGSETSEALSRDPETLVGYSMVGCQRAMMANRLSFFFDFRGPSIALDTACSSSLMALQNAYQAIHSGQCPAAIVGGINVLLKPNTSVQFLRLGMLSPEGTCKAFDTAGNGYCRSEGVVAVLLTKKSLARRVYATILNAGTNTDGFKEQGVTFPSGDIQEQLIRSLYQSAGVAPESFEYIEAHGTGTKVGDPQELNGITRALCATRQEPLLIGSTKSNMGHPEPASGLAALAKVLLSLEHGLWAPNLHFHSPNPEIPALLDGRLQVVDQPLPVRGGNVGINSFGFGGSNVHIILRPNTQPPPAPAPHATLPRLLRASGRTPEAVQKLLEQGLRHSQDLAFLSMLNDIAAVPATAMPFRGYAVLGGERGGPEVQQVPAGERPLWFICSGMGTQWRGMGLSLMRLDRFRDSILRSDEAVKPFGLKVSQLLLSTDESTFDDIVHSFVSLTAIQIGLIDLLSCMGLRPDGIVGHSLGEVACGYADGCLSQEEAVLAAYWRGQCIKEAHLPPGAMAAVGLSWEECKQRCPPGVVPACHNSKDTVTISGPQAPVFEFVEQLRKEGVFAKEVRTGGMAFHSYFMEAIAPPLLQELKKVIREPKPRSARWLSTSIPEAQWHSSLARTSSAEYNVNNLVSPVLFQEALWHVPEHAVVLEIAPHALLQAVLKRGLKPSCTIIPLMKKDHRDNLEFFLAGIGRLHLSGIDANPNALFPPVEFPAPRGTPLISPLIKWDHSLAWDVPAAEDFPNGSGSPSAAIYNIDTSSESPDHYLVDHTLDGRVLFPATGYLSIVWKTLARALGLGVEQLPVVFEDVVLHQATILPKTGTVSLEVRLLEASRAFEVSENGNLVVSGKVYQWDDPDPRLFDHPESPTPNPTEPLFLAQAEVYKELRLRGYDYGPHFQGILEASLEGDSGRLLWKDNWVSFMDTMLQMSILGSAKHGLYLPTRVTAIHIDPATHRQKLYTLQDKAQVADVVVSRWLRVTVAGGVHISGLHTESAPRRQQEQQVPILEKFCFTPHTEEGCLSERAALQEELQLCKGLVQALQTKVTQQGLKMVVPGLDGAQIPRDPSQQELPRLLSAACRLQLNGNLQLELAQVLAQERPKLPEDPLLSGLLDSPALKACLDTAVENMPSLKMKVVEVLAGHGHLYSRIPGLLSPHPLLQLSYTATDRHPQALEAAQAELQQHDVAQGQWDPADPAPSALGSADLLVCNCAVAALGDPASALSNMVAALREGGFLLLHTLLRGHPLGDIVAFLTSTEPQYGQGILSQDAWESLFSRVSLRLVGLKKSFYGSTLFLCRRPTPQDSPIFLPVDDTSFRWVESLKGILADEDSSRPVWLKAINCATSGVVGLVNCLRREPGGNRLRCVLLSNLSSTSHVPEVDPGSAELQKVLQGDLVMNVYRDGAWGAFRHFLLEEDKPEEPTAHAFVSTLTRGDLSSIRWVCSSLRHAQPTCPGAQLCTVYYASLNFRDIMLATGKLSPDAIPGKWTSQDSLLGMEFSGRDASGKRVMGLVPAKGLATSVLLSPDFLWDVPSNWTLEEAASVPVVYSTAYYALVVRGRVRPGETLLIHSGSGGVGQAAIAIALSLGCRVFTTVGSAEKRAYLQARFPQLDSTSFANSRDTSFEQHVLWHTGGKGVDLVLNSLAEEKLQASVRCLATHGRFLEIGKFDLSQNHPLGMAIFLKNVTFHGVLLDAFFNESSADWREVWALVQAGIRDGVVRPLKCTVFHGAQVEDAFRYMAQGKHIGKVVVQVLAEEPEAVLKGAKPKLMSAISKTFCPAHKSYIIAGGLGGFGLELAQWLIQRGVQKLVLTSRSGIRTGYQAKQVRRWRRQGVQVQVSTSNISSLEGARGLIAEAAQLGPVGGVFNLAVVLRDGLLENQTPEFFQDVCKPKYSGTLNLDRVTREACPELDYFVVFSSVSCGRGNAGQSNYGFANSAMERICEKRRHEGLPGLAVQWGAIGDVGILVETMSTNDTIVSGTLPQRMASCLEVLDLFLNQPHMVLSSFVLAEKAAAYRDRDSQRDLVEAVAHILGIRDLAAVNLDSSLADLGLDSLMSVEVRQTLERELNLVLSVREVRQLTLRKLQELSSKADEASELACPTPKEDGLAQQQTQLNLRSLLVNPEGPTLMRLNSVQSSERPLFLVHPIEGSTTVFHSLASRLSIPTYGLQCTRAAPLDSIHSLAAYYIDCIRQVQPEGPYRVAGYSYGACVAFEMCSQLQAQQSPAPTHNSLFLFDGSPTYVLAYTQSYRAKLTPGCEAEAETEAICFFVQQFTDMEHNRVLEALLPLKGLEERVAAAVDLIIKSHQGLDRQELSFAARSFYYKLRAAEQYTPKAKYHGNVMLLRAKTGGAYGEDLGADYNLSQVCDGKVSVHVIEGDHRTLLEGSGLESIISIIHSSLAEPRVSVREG
Protein disulfide-isomerase, sequence (P07237 whole entry): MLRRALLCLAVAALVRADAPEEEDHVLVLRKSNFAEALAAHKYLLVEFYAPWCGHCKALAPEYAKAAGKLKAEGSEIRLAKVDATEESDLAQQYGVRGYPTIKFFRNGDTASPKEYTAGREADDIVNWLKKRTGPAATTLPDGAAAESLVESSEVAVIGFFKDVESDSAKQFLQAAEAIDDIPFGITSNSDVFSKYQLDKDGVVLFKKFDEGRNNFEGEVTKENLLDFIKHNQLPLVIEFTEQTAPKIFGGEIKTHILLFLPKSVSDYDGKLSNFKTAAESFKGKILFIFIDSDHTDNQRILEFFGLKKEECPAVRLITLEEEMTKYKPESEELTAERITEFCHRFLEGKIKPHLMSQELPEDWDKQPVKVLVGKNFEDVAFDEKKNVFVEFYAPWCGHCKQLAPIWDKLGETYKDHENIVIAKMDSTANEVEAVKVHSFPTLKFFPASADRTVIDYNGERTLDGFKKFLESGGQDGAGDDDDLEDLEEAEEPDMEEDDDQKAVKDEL
Cyclin-dependent kinase 19, sequence (Q9BWU1 whole entry): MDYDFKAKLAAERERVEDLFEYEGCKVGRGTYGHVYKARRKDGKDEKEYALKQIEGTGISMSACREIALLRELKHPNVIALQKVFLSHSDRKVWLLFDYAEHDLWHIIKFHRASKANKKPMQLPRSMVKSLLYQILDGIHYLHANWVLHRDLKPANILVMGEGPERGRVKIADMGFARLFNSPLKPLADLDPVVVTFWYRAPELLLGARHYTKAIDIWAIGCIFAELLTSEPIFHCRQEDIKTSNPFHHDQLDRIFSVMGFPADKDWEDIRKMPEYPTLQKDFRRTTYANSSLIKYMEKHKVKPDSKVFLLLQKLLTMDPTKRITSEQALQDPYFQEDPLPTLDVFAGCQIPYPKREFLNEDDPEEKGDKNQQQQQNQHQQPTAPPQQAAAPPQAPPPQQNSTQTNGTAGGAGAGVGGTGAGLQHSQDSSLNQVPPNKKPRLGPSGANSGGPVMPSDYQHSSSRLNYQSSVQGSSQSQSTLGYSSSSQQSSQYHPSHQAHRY
Melanocortin receptor 4, sequence (P32245 whole entry): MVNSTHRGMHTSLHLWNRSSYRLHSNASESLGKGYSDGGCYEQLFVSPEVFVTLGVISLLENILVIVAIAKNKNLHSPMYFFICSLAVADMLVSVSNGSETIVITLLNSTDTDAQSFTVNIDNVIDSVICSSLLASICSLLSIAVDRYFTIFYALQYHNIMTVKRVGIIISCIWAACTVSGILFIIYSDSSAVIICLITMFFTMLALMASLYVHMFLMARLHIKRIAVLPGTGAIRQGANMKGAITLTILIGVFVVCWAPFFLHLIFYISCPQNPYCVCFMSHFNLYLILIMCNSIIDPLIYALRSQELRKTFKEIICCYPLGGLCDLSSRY
ATP-dependent molecular chaperone HSP82, sequence (C4YTQ8 whole entry, the tested form may be a part): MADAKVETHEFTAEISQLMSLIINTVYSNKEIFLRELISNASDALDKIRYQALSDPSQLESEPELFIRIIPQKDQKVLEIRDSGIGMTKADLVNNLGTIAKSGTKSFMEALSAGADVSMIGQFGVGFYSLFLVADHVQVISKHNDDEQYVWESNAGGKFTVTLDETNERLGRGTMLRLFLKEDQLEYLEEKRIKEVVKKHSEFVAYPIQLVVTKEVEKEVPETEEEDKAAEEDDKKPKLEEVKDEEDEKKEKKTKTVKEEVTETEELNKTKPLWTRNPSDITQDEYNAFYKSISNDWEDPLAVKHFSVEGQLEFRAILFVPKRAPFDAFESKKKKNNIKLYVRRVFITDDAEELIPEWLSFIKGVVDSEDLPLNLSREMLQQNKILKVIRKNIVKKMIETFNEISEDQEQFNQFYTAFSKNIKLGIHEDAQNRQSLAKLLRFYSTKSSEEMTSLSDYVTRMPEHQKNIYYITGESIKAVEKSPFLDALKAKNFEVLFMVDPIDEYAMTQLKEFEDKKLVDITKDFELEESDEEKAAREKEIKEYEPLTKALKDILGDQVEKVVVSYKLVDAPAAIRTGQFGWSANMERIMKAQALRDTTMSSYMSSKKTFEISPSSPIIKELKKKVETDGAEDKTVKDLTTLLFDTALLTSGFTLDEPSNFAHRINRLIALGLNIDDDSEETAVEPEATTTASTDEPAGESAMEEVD
Melanin-concentrating hormone receptor 1, sequence (Q99705 whole entry): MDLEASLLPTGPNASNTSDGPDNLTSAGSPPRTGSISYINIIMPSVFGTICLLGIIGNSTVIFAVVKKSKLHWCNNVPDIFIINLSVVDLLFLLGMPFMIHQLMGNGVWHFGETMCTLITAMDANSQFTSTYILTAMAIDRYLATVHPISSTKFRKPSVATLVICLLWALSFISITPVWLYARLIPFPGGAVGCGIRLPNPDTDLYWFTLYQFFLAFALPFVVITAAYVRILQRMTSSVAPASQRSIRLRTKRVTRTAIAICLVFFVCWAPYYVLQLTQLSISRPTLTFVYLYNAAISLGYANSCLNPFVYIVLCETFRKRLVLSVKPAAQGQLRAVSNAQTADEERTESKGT

With `O=C(Nc1nnc(-c2ccc(F)cc2)o1)c1cccc([N+](=O)[O-])c1` the EC50 [1] was > 150 µM (inactive), the EC50 [2] was 0.601 µM (active) and the EC50 [3] was > 180 µM (inactive). The CC50 (Vero) was 11.4 µM (active), the EC50 [4] was > 150 µM (inactive) and the IC50 (Fatty acid synthase [5]) was 11.9 µM (active). The IC50 (Fatty acid synthase [6]) was 9.09 µM (active).
With `COc1cc(OC)cc(Oc2ccc(S(=O)(=O)N3CCCCC3)cc2[N+](=O)[O-])c1` the IC50 (Melanocortin receptor 4) was > 64.6 µM (inactive) and the IC50 [7] was > 64.6 µM (inactive).
With `COc1ccc(Oc2c(Cl)cnn(C3c4ccccc4Oc4ccccc43)c2=O)cc1` the IC50 [8] was > 20 µM (inactive).
For `Cn1cc(Nc2ncc(Br)c(Nc3ccccc3)n2)cn1`, the Ki [9] was 1.26 µM (active) and the Ki [10] was 2 µM (active).
With `C[C@H]1CN([C@@H](C)CO)C(=O)c2cccc(NS(C)(=O)=O)c2O[C@@H]1CN(C)Cc1ccc(Oc2ccccc2)cc1` the AC50 [11] was 19.5 µM (active).
In the case of `O=C(N/N=C\c1c(O)ccc2ccccc12)c1ccc(S(=O)(=O)N2CCCCC2)cc1`, the EC50 [1] is reported as 3.29 µM (active), the EC50 (cells [12]) is reported as 5.71 µM (active) and the EC50 [2] is reported as 0.178 µM (active). The EC50 (cells [13]) was > 350 µM (not active), the IC50 [14] was > 80 µM (inactive) and the EC50 (BJ) was 0.558 µM (inconclusive). For the same compound, the AC50 (INS1) was < 0.195 µM (active).
For `O=c1c(OC2OC(CO)C(O)C(O)C2O)c(-c2ccc(O)c(O)c2)oc2cc(O)cc(O)c12` (centres undefined), the IC50 (Large T antigen) was 2.06 µM (active), the IC50 [15] was 21.3 µM (active) and the AC50 [16] was 7.72 µM (active). For the same compound, the AC50 [11] was 8.92 µM (active).
